{"source": "paper PMC6891598", "about": "“Application of N-Dodecyl L-Peptide to Enhance Serum Stability while Maintaining Inhibitory Effects on Myometrial Contractions Ex Vivo” (Molecules, 2019)", "key": {"[1]": {"tested_on": "murine myometrial tissue (PGF2α-induced contractions; FP)", "assay": "ex vivo mouse myometrial tissue contraction assay (PGF2α-induced)", "parameters": "species or system mouse (CD-1)", "conditions": "post-partum CD-1 mouse myometrial strips, Krebs buffer pH 7.4, 37 °C, 20 min pretreatment with peptide at two concentrations, then PGF2α; 4–6 experiments per group, means ± SEM, t-test, p < 0.05 vs vehicle", "protocol": "All the peptides were initially tested in an ex vivo mouse myometrial tissue contraction assay. Contractile activity was measured on tissue that was harvested post-partum and treated with prostaglandin F2α (PGFα) alone (control) or in the presence of peptides L-4b-4g, L-7, and L-8. […] Mean tension induced by KCl (as a positive control) was not affected by L-4d.\nPregnant CD-1 mice (16-17 days gestation, term 19 days) were obtained from Charles River Inc. and used according to a protocol of the Animal Care Committee of Hôpital Sainte-Justine according to the principles of the Guide for the Care and Use of Experimental Animals of the Canadian Council on Animal Care. The animals were maintained on standard laboratory chow under a 12:12 light:dark cycle and allowed free access to chow and water.\nThe uterus from the CD-1 mouse was obtained from the animal immediately after term delivery under anesthesia (2.5% isoflurane). Briefly, a midline abdominal incision was made and the uterine horns were rapidly excised, cleansed carefully of the surrounding connective tissues, and removed. Longitudinal myometrial strips (2 to 3 mm wide and 1 cm long) were dissected free from the uterus and mounted isometrically in organ tissue baths. The initial tension was set at 2 g. The tissue baths contained 20 mL of Krebs buffer of the following composition (in mM): 118 NaCl, 4.7 KCl, 2.5 CaCl2, 0.9 MgSO4, 1 KH2PO4, 11.1 glucose, and 23 NaHCO3 (pH 7.4). The buffer was equilibrated with 95% oxygen/5% carbon dioxide at 37 °C. Isometric tension was measured by a force transducer and recorded by a BIOPAC data acquisition system (BIOPAC MP150, Montreal, PQ, Canada). Experiments were begun after 1 h equilibration. Mean tension of spontaneous contractions was measured using a BIOPAC digital polygraph system (AcqKnowledge); the same parameters were also determined after addition of PGF2α in the presence or the absence of a 20 min-pretreatment with different FP inhibitors. At the start of each experiment, mean tension of spontaneous myometrial contractions was considered as a reference response. Changes in mean tension (g) were expressed as percentages of the initial reference response (% of baseline).\nAt the start of each experiments, mean tension of spontaneous myometrial contractions was considered as a reference response. Increase in mean tension (%) was expressed as percentages of (X/Y)-100, where X is the change in mean tension (g) induced by PGF2α and Y is the initial reference response (g). Data are representative of 4–6 experiments per treated group. All results are expressed as means ± SEM and were compared by Independent t-tests. Statistical tests were performed with GraphPad Prism 4.3 software and p < 0.05 was considered statistically significant."}, "[2]": {"assay": "solubility in water (observation on handling)", "type": "physicochemical", "conditions": "qualitative observation on the purified, freeze-dried peptide", "protocol": "Linear sequences of L- and D-PDC31 linked to 2-chlorotrityl resin (L- and D-1) were obtained by solid phase peptide synthesis using standard Fmoc/t-Bu protocols. Peptide resin L-1 was treated with the appropriate aldehyde 2 (Scheme 1). The imine resin was washed to remove excess aldehyde, and reductive amination was performed using sodium cyanoborohydride to provide secondary amine resin 3. Removal of the protecting groups and resin cleavage were achieved using a cocktail of 95:2.5:2.5 TFA:TES:H2O to provide N-alkyl- and N-PEG-grafted peptides 4, which were purified by RP-HPLC (Table 1). […] An inseparable mixture of mono- and bis-N-alkyl peptides was isolated by HPLC from reaction with aldehyde of shorter chain length.\nIncreased lipophilic character may promote peptide aggregation and decrease solubility in aqueous solvent. […] For biological assays, solubility issues were surmounted by forming salts and using small amounts of DMSO. The influence of their amphiphilic character during purification by RP-HPLC and double alkylation from the reductive amination sequence may account for the lower isolated yields of peptides 4, 7 and 8."}, "[3]": {"assay": "serum stability study (mouse serum/plasma, MS/MS)", "type": "in vitro ADME", "conditions": "mouse plasma (method: serum), 37 °C, LC-MS/MS, internal standard L-4f", "protocol": "Peptide L-4d was further examined for stability in serum and compared to L-PDC31. The two peptides were incubated at 37 °C in mouse plasma. Aliquots were removed at different time intervals and analyzed by mass spectrometry (MS/MS) to detect remaining amount of peptide (Figure 3).\nSerum was […] and kept on ice throughout the procedure. Two blanks were prepared by adding 5 µL of DMSO to 95 µL of serum. These were incubated for 2 h and submitted to the same treatment as the other samples. Two series of vials containing 95 µL of serum were prepared and spiked with either 5 µL of L-PDC31 [0.4 mM] or L-4d [0.4 mM], and incubated for 120, 60, 30, 15, 10 and 5 min, respectively, after which 100 µL of 4% phosphoric acid was added. Two vials were also spiked with 5 µL L-PDC31 and L-4d, respectively, and immediately treated with phosphoric acid (time = 0 min). The vials were incubated for 5 min at 95 °C, cooled on ice for 2 min, treated with 600 µL of cold MeCN containing L-4f (0.02 mM) as internal standard, and incubated at –20 °C overnight. After the incubation period, the vials were vortexed for 2 min and centrifuged at 4 °C for 15 min. The supernatant was transferred into LC-MS vials and analyzed.\nResults were expressed as: (AN/IS/AN0/IS0)∗100\nAN and IS refer, respectively, to the analyte and internal standard MS signals. Both values are compared with initial injection at which time AN0 and IS0 were not incubated."}, "[4]": {"tested_on": "prostaglandin F2α receptor (FP)", "conditions": "cited from earlier work", "protocol": "The development of PDC31 originated from a library of sequences based on the second extracellular loop of FP. Short lead peptides were analyzed initially using in vitro and ex vivo analyses. […] Moreover, addition of the dodecyl chain enhanced plasma stability."}}, "note": "Entries after “also recorded” stand apart in the source; their conditions may differ. Structures can show the parent of a compound that is named as a salt. Residues, ends and D or L forms follow the SMILES beside them.", "data": [{"compound": "CCCCCCCCCCCCN[C@@H](C(=O)N[C@H](CC(C)C)C(=O)NCC(=O)N[C@H](Cc1c[nH]cn1)C(=O)N[C@H](CCCNC(N)=O)C(=O)N[C@H](CC(=O)O)C(=O)N[C@H](Cc1ccc(O)cc1)C(=O)N[C@H](CCCCN)C(=O)O)[C@H](C)CC", "note": "[D-4d, N-Dodecyl-D-Ile-D-Leu-Gly-D-His-D-Cit-D-Asp-D-Tyr- D-Lys-OH] (HELM PEPTIDE1{[CCCCCCCCCCCCN[C@@H](C(=O)[*:2])[C@H](C)CC].[dL].G.[dH].[NC(=O)NCCC[C@@H](N[*:1])C(=O)[*:2]].[dD].[dY].[dK]}$$$$V2.0)", "values": [{"measurement": "effect on PGF2α-induced contractions (mean tension) of myometrial tissue", "setting": "[1]", "result": "trends suggesting protective effects; also recorded: lower potency than the unmodified D-peptide, PDC-31"}]}, {"compound": "CCCCCCCCCCCC(=O)N[C@H](C(=O)N[C@@H](CC(C)C)C(=O)NCC(=O)N[C@@H](Cc1c[nH]cn1)C(=O)N[C@@H](CCCNC(N)=O)C(=O)N[C@@H](CC(=O)O)C(=O)N[C@@H](Cc1ccc(O)cc1)C(=O)N[C@@H](CCCCN)C(=O)O)[C@@H](C)CC", "note": "[L-8, N-Dodecanoyl-Ile-Leu-Gly-His-Cit-Asp-Tyr-Lys-OH] (HELM PEPTIDE1{[CCCCCCCCCCCC(=O)[*:2]].I.L.G.H.[Cit].D.Y.K}$$$$V2.0)", "values": [{"measurement": "solubility in water", "setting": "[2]", "result": "poor solubility; also recorded: aqueous solubility issues"}, {"measurement": "effect on PGF2α-induced contractions (mean tension) of myometrial tissue", "setting": "[1]", "result": "inactive"}]}, {"compound": "CCCCCCCCCCCC(=O)N[C@H](C(=O)N[C@@H](CC(C)C)C(=O)NCC(=O)N[C@@H](Cc1c[nH]cn1)C(=O)N[C@@H](CCCNC(N)=O)C(=O)N[C@@H](CC(=O)O)C(=O)N[C@@H](Cc1ccc(O)cc1)C(=O)N[C@@H](CCCCN)C(=O)O)[C@@H](C)CC", "note": "[L-8 HCl salt] (HELM PEPTIDE1{[CCCCCCCCCCCC(=O)[*:2]].I.L.G.H.[Cit].D.Y.K}$$$$V2.0)", "values": [{"measurement": "solubility in water", "setting": "[2]; listed as 8 hydrochloride salt", "result": "dissolved readily in water"}]}, {"compound": "CC[C@H](C)[C@H](NCC=C(C)CCC=C(C)CCC=C(C)C)C(=O)N[C@@H](CC(C)C)C(=O)NCC(=O)N[C@@H](Cc1c[nH]cn1)C(=O)N[C@@H](CCCNC(N)=O)C(=O)N[C@@H](CC(=O)O)C(=O)N[C@@H](Cc1ccc(O)cc1)C(=O)N[C@@H](CCCCN)C(=O)O", "note": "[L-7, N-Farnesyl-Ile-Leu-Gly-His-Cit-Asp-Tyr-Lys-OH] (HELM PEPTIDE1{[CC[C@H](C)[C@H](NCC=C(C)CCC=C(C)CCC=C(C)C)C(=O)[*:2]].L.G.H.[Cit].D.Y.K}$$$$V2.0)", "values": [{"measurement": "solubility in water", "setting": "[2]", "result": "soluble in water"}, {"measurement": "effect on PGF2α-induced contractions (mean tension) of myometrial tissue", "setting": "[1]", "result": "Neither PEGylated peptide L-4g nor N-farnesyl peptide L-7 exhibited activity"}]}, {"compound": "CCCCCCN[C@H](C(=O)N[C@@H](CC(C)C)C(=O)NCC(=O)N[C@@H](Cc1c[nH]cn1)C(=O)N[C@@H](CCCNC(N)=O)C(=O)N[C@@H](CC(=O)O)C(=O)N[C@@H](Cc1ccc(O)cc1)C(=O)N[C@@H](CCCCN)C(=O)O)[C@@H](C)CC", "note": "[L-4b, N-Hexanyl-Ile-Leu-Gly-His-Cit-Asp-Tyr-Lys-OH] (HELM PEPTIDE1{[CCCCCCN[C@H](C(=O)[*:2])[C@@H](C)CC].L.G.H.[Cit].D.Y.K}$$$$V2.0)", "values": [{"measurement": "effect on PGF2α-induced contractions (mean tension) of myometrial tissue", "setting": "[1]", "result": "trends suggesting protective effects; also recorded: not statistically significant"}]}, {"compound": "N-Octadecanyl-Ile-Leu-Gly-His-Cit-Asp-Tyr-Lys-OH [L-4f]", "values": [{"measurement": "solubility in water", "setting": "[2]", "result": "required a small amount of DMSO to completely dissolve; also recorded: aqueous solubility issues; also recorded: poorly soluble in water"}, {"measurement": "effect on PGF2α-induced contractions (mean tension) of myometrial tissue", "setting": "[1]", "result": "trends suggesting protective effects; also recorded: not statistically significant"}]}, {"compound": "CCCCCCCCCCCCCN[C@H](C(=O)N[C@@H](CC(C)C)C(=O)NCC(=O)N[C@@H](Cc1c[nH]cn1)C(=O)N[C@@H](CCCNC(N)=O)C(=O)N[C@@H](CC(=O)O)C(=O)N[C@@H](Cc1ccc(O)cc1)C(=O)N[C@@H](CCCCN)C(=O)O)[C@@H](C)CC", "note": "[L-4e, N-Tridecanyl-Ile-Leu-Gly-His-Cit-Asp-Tyr-Lys-OH] (HELM PEPTIDE1{[CCCCCCCCCCCCCN[C@H](C(=O)[*:2])[C@@H](C)CC].L.G.H.[Cit].D.Y.K}$$$$V2.0)", "values": [{"measurement": "solubility in water", "setting": "[2]", "result": "Except for peptide 4e, bearing the 18-carbon alkyl chain, peptides 4 were all soluble in water"}]}, {"compound": "CC[C@H](C)[C@H](N)C(=O)N[C@@H](CC(C)C)C(=O)NCC(=O)N[C@@H](Cc1c[nH]cn1)C(=O)N[C@@H](CCCNC(N)=O)C(=O)N[C@@H](CC(=O)O)C(=O)N[C@@H](Cc1ccc(O)cc1)C(=O)N[C@@H](CCCCN)C(=O)O", "note": "[L-PDC31, H-Ile-Leu-Gly-His-Cit-Asp-Tyr-Lys-OH] (HELM PEPTIDE1{I.L.G.H.[Cit].D.Y.K}$$$$V2.0)", "values": [{"measurement": "time to complete degradation in mouse plasma", "setting": "[3]; 5 µL 0.4 mM peptide in 95 µL serum", "result": "≤ 5", "unit": "min"}, {"measurement": "stability in mouse plasma, in words", "setting": "[3]; incubation up to 2 hours", "result": "rapidly degraded in plasma"}]}, {"compound": "CC[C@H](C)[C@H](NCCOCCOCCOCCOC)C(=O)N[C@@H](CC(C)C)C(=O)NCC(=O)N[C@@H](Cc1c[nH]cn1)C(=O)N[C@@H](CCCNC(N)=O)C(=O)N[C@@H](CC(=O)O)C(=O)N[C@@H](Cc1ccc(O)cc1)C(=O)N[C@@H](CCCCN)C(=O)O", "note": "[L-4g, N-2,7,8,11-tetraoxytetradecane-Ile-Leu-Gly-His-Cit-Asp-Tyr-Lys-OH] (HELM PEPTIDE1{[CC[C@H](C)[C@H](NCCOCCOCCOCCOC)C(=O)[*:2]].L.G.H.[Cit].D.Y.K}$$$$V2.0)", "values": [{"measurement": "effect on PGF2α-induced contractions (mean tension) of myometrial tissue", "setting": "[1]", "result": "Neither PEGylated peptide L-4g nor N-farnesyl peptide L-7 exhibited activity"}]}, {"compound": "H-ile-leu-Gly-his-arg-asp-tyr-lys-OH [PDC113]", "values": [{"measurement": "activity as FP inhibitor, in words", "setting": "[4]", "result": "active FP inhibitor"}]}]}
